Counter-ions that a name gives are not always drawn. Like-named read-outs stand apart in the source and are kept apart here. Values belong to the molecule of their own block, whether it stands above or below them. Square brackets hold non-standard residues; d marks the D form. Peptide text beside a SMILES is read from it. * marks the point of attachment. Sta = CC(C)C[C@H](N)[C@@H](O)CC(=O)O; Isovaleryl = CC(C)CC(=O)*
Experiments:
[1] = biological target: chymotrypsin activity in feces; experiment: Fecal Chymotrypsin Activity (Specific Fecal Enzyme Method); format: biochemical; settings: pooled infant fecal suspension, pH 7.6, 25° C.; read-out: IC50 Specific Fecal Enzyme Methods Chymotryp.
Excerpt: The following is a general description of a method for obtaining a sample of feces suitable for use in Fecal Protease Methods. However, one skilled in the art will be able to adapt the method to obtain appropriate samples of feces suitable for use in any of the Specific Fecal Protease Methods listed below (i.e., lipase, urease, and amylase) without undue experimentation. […] Pooled infant feces (at least five different samples) are collected in a manner to keep them free of urine and contamination and mixed with water to obtain a weight by weight (w/w) mixture (e.g., 1:50 w/w). This mixture is then mixed thoroughly to obtain a homogeneous suspension by homogenization or sonication. […] (Also, to ensure complete linearity the final absorbance should never exceed 1.5 OD405 units). If the activity of the pooled infant feces is outside this range, it is not possible to accurately determine IC50 values for putative protease inhibitors. However, the range of enzyme activity may be adjusted by increasing or decreasing the dilution factor accordingly for each enzyme. If this is not possible, a different group of subjects should be used to obtain the sample pool. […] The cuvette is mixed by inversion and incubated at 25° C. for 5 minutes. […] The rate of substrate cleavage in the presence of inhibitor (vi) is the slope of a plot relating the excess absorbance (i.e., the absorbance at 405 nm minus the absorbance at 490 nm) versus time. The same procedure is repeated without the putative inhibitor. The rate of substrate cleavage in the absence of inhibitor (v) is the slope of a plot relating the excess absorbance versus time. The rates, vi and v, and the inhibitor concentration [I] are used to calculate IC50 according to the equation expressed above.

[2] = biological target: T1, purified leucine aminopeptidase (LAP) (Sus scrofa, UniProt P15145); experiment: Purified Leucine Aminopeptidase Activity (Purified Enzyme Method); format: biochemical
T1 construct: purchased Sigma, St. Louis, Mo; L5006
T1 sequence (P15145 1-963): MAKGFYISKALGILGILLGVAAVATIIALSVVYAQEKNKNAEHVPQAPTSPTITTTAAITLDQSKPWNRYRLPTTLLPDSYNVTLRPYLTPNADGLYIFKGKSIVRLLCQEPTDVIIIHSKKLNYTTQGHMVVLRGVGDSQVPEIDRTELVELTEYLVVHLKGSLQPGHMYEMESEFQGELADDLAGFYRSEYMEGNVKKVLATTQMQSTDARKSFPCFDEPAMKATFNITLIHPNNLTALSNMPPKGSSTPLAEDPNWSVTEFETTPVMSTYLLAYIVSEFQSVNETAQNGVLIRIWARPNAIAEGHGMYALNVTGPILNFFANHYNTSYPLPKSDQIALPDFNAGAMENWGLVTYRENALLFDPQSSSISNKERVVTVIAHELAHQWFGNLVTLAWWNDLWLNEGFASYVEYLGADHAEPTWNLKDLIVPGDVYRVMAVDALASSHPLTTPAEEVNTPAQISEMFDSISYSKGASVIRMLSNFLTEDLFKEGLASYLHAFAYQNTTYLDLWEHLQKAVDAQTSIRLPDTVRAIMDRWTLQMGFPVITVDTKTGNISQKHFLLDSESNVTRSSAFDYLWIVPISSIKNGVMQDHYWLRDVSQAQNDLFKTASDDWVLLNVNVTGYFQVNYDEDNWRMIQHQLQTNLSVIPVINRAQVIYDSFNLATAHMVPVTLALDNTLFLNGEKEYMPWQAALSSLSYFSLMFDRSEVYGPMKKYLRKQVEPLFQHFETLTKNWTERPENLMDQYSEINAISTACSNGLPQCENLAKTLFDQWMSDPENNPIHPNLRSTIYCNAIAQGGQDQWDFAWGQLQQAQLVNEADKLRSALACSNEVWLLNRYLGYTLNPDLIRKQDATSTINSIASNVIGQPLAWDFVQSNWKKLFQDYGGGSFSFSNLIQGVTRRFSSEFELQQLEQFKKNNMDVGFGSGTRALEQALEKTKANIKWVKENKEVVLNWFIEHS
Experimental: The IC50 is calculated according to the equation IC50=[I]/[(v/vi)−1], where [I] is the inhibitor concentration tested, v is the rate of substrate cleavage in the absence of the inhibitor and vi is the rate of substrate cleavage in the presence of the inhibitor. As described further below, the IC50 of an enzyme inhibitor according to the invention may be measured by a Purified Enzyme method, by a Specific Fecal Enzyme method or by a General Fecal Enzymes method.
Standard in vitro assays for enzyme activity, and inhibition of enzyme activity, are well known. The reagents used to conduct these tests are generally commercially available. In general, a simple system comprises an enzyme-specific substrate which, when hydrolyzed by the enzyme, produces a colored product. The activity of the enzyme is measured spectrophotometrically as the degree of development of the colored product (i.e., the rate of color change) over a predetermined time period. […] The following are exemplary methods that may be utilized to determine the inhibitory activity of enzyme inhibitors against A) purified enzymes known to exist in feces, B) specific enzyme activity in the feces itself and C) general enzyme activity in the feces itself. These methods are not intended to be limiting, however, as other methods, other substrates, other inhibitors and the like may be used to test activity against a wide variety of fecal enzymes, as known to one skilled in the art.
For each of the following exemplary Purified Enzyme Methods, Specific Fecal Enzyme Methods, General Fecal Enzymes Method, Purified Lipase activity assay, Fecal Lipase activity assay, Purified Urease activity assay, Fecal Urease activity assay, Purified Amylase activity assay, and Fecal Amylase activity assay, the IC50 for each inhibitor tested may be calculated according to the following equation: […]
where [I] is the inhibitor concentration tested, v is the rate of substrate cleavage in the absence of inhibitor and vi is the rate of substrate cleavage in the presence of inhibitor.
In the methods, v and vi are measured as the change in absorbance (optical density, OD) at a given wavelength/time (e.g., minutes).
To test the efficacy of protease inhibitors against purified leucine aminopeptidase (LAP), 0.05 mL of a putative inhibitor and 0.125 mL of 0.06 U/mL LAP (e.g., Sigma, St. Louis, Mo., catalogue no. L5006) in LAP buffer (50 mM sodium phosphate, pH 7.2) are added to a microcuvette. The cuvette is incubated at 25° C. for 10 minutes. […] The same procedure is repeated without the putative inhibitor. […] The rates, vi and v, and the inhibitor concentration [I] are used to calculate IC50 according to the equation expressed above.

[3] = purified leucine aminopeptidase, L-Leucine-p-nitroaniline, pH 7.2, 25° C., read-out: IC50 Purified Enzyme Methods LAP

IC50 [1]: > 500 µM
IC50 [2, 3]: > 500 µM
Molecule: N=C(N)c1ccc(N)cc1 [p-Amino-benzamidine]

Molecule: N=C(N)c1ccc(OCCCCCCOc2ccc(C(=N)N)cc2)cc1 [Hexamidine diisethionate]
IC50 [1]: > 1000 µM
IC50 [2, 3]: 256 µM

Molecule: Cc1ccc(S(=O)(=O)N[C@@H](CCCCN)C(=O)CCl)cc1 [TLCK, L-1-chloro-3-[4-tosylamido]-7-amino-2-heptanone-HCl]
IC50 [1]: > 500 µM
IC50 [2]: > 500 µM

Molecule: CC(C)C[C@H](NC(=O)[C@@H](NC(=O)N[C@@H](Cc1ccccc1)C(=O)O)[C@@H]1CCN=C(N)N1)C(=O)N[C@H](C=O)Cc1ccccc1 [Chymostatin]
IC50 [1]: 0.02 µM
IC50 [2, 3]: > 500 µM

IC50 [1]: > 300 µM
IC50 [2, 3]: > 500 µM
Molecule: CC1(C)[C@@H](O[C@H]2O[C@H](C(=O)O)[C@@H](O)[C@H](O)[C@H]2O[C@@H]2O[C@H](C(=O)O)[C@@H](O)[C@H](O)[C@H]2O)CC[C@]2(C)[C@H]3C(=O)C=C4[C@@H]5C[C@@](C)(C(=O)O)CC[C@]5(C)CC[C@@]4(C)[C@]3(C)CC[C@@H]12 [Glycyrrhizic Acid]

IC50 [1]: 0.22 µM
IC50 [2, 3]: > 20 µM
Molecule: Aprotinin

Molecule: CC(C)CC(=O)N[C@H](C(=O)N[C@H](C(=O)N[C@@H](CC(C)C)[C@@H](O)CC(=O)N[C@@H](C)C(=O)N[C@@H](CC(C)C)[C@@H](O)CC(=O)O)C(C)C)C(C)C [Pepstatin A] (Isovaleryl-VV[Sta]A[Sta]-OH)
IC50 [1]: 300 µM
IC50 [2, 3]: > 500 µM

Molecule: CC(=O)N[C@@H](CC(C)C)C(=O)N[C@@H](CC(C)C)C(=O)N[C@H](C=O)CCCNC(=N)N [Leupeptin]
IC50 [1]: > 500 µM
IC50 [2, 3]: > 500 µM

IC50 [1]: 0.06 µM
IC50 [2, 3]: > 10 µM
B1: Soybean trypsin inhibitor: plant-derived trypsin inhibitor (protein, UniProt P01070 25-205, looked up)
Trypsin inhibitor A: DFVLDNEGNPLENGGTYYILSDITAFGGIRAAPTGNERCPLTVVQSRNELDKGIGTIISSPYRIRFIAEGHPLSLKFDSFAVIMLCVGIPTEWSVVEDLPEGPAVKIGENKDAMDGWFRLERVSDDEFNNYKLVFCPQQAEDDKCGDIGISIDHDDGTRRLVVSKNKPLVVQFQKLDKESL
